# Laboratory results reported in PubChem BioAssay AID1996.
# Settings: buffer; pH 7.4; 200.0 µM
row,solubility kinetic [µg/mL],SMILES
1,1.7,Cc1cc(C(C)(C)C)cc(C)c1COC(=O)c1cccnc1
2,41.4,COc1cc(CNCc2ccco2)cc(OC)c1O.Cl
3,1.4,O=c1cc(-c2ccccc2)c2cc3c(cc2[nH]1)OCCO3
4,4.5,O=C(COC(=O)c1ccc2c(c1)OCO2)Nc1ccccc1
5,60.1,CC1(C)[C@H]2CC[C@]1(C)[C@@H](OC(=O)C[N+]1(C)CCOCC1)C2.[I-]
6,30.7,COc1ccc(CCC(=O)NCC23CC4CC(CC(C4)C2)C3)cc1
7,> 46.6,Cc1ccc(C(=O)Nc2cccnc2N2CCN(C)CC2)cc1
8,> 43.1,COc1ccc2[nH]c(C(=O)N3CCN(C)CC3)c(C)c2c1
9,> 73.4,O=C(OCC(=O)N1CCCCCC1)c1ccc(Br)c(S(=O)(=O)N2CCOCC2)c1
10,> 44.1,OC(c1nc2ccccc2[nH]1)C(O)c1nc2ccccc2[nH]1 (stereo not given)
11,15.7,COCc1ccc(C(=O)Nc2cccc(S(=O)(=O)N(C)c3ccccc3)c2)cc1
12,< 0.4,COc1ccccc1NC(=O)c1ccc2c(c1)C(=O)N(Cc1ccco1)C2=O
13,> 54.7,CCCCNc1cc(C(=O)O)cc(S(N)(=O)=O)c1Oc1ccccc1
14,> 41.8,Cc1cc(=O)oc(C)c1C(=O)Nc1cccnc1Cl
15,1.8,CC(C)c1nc(SCC(=O)NC2CCCCC2)c2ccccc2n1
16,> 36.6,CC(=O)O/N=C/c1c(C)c(C=O)n2ccccc12
17,33.8,Fc1cc(Br)cc(F)c1NC(=S)N1CCOCC1
18,> 53.7,CCN(CC)Cc1c(O)ccc2c(=O)c(-c3ccccc3Cl)coc12
19,26.3,N#C/C(=C\c1cccs1)C(=O)c1ccccc1
20,3.6,CC(NC(=O)/C(C#N)=C/c1cccs1)c1ccccc1 (stereo not given)
21,> 42.6,C/C(=N\NC(=O)c1cccc([N+](=O)[O-])c1)c1ccncc1
22,3.7,Cc1ccsc1C(=O)OCC(=O)c1cc(C)n(C)c1C
23,> 46.2,Clc1nc(CN2CCCCC2)nc2sc3c(c12)CCC3
24,1.6,Cc1ccc(N2CCN(C(=O)NC3CCCCC3)CC2)c(C)c1

row,solubility kinetic [µg/mL],SMILES
1,> 56.3,Cc1cc(NS(=O)(=O)c2ccc(NC(=O)c3ccccc3F)cc2)no1
2,33,S=C(NC1CC1)N1CCCc2ccccc21
3,> 46.6,Cc1ccc(S(=O)(=O)NC2CCCCCC2)cc1C(N)=O
4,6.6,COc1ccc(CCN2C(=NC(=O)C(C)C)SC3CS(=O)(=O)CC32)cc1 (stereo not given)
5,> 42.6,O=S(=O)(Nc1ccc2ccccc2n1)c1ccccc1
6,> 40,Cc1ccc(C2C(N)C(=O)N2c2ccc(C)cc2)cc1 (stereo not given)
7,26.9,CCOc1ccc(N2C(=O)Cc3ccccc3C2=O)cc1
8,> 49.7,CCc1cccc(NC(=O)CC2SC(N3CCCC3)=NC2=O)c1 (stereo not given)
9,> 46.5,O=C(CCSCc1ccccc1Cl)NCc1ccco1
10,> 34.8,COc1ccc(/C=C2/NC(=O)CNC2=O)cc1
11,1,O=C(c1ccc([N+](=O)[O-])cc1)N1CCc2ccccc21
12,21.1,Cc1ccc(NC(=O)CNC2CCCCC2)cc1Cl
13,> 42.9,C/C(=N/NC(=O)CNC(=O)c1ccncc1)c1ccco1
14,9.6,CC(C)(C)c1ccc(C(=O)N2CCN(c3ncccn3)CC2)cc1
15,> 46.8,Cc1cc(C)n2nc(C(=O)N/N=C/c3cn(C)nc3C)nc2n1
16,36.6,COC(=O)CSc1nc(NC(C)C)nc(N(C)C)n1
17,54.7,COC(=O)c1cc(NC(=O)COC(=O)C2COc3ccccc3O2)cc(C(=O)OC)c1 (stereo not given)
18,0.9,N#Cc1ccc(C(=O)Nc2cccc3ccccc23)c(F)c1
19,15.4,CC(C)(C)c1ccc(/C=C2/SC(N3CCCC3)=NC2=O)cc1
20,> 34.7,O=C(Nc1ccccc1C(=O)O)C1=NN=CC1
21,1.3,O=C(Nc1nc2c(Cl)cccc2s1)C1CC1
22,3.1,Cc1ccc2c(COC(=O)c3c(C)noc3C)cc(=O)oc2c1
23,1.2,Cc1ccc(Cn2c(=O)n(C)c(=O)c3sccc32)cc1
24,1.4,Cn1c(COc2ccccc2Br)nc2ccccc21

row,solubility kinetic [µg/mL],SMILES
1,> 39.8,O=C(O)c1ccccc1-c1ncc(-c2ccccc2)o1
2,3,O=[N+]([O-])c1ccc(C(O)CN2CCN(c3ccccc3)CC2)cc1 (stereo not given)
3,2.5,Cc1cc(C(=O)COC(=O)c2ccco2)c(C)n1Cc1ccco1
4,23.9,COc1ccc(/C=C2\CCc3ccccc3C2=O)cc1CN1CCOCC1
5,> 50.9,CC(C)(C)N1CC(C(=O)Nc2ccc(S(N)(=O)=O)cc2)CC1=O (stereo not given)
6,> 39.3,Oc1ccc(C2Nc3cccc4cccc(c34)N2)cc1
7,> 36.6,N#Cc1c(N)nc2c(c1N)CC(C(F)(F)F)O2 (stereo not given)
8,1.3,COc1ccc(NC(=O)c2cc(C)n(Cc3cccs3)c2C)cc1
9,> 50.8,Cc1ccc(C(=O)N/C(=C\c2ccco2)C(=O)N2CCCCC2)cc1
10,23.4,S=C(NCCCc1ccccc1)NCc1ccccc1
11,25.6,N/C(=N\OC(=O)c1ccncc1)c1cccc([N+](=O)[O-])c1
12,> 35.3,CC1(C)C2CC=C(/C=N/NC(=O)C(N)=O)C1C2 (stereo not given)
13,> 60.2,Cc1ccccc1CN(c1ccc(C(=O)N2CCN(C)CC2)cc1)S(C)(=O)=O
14,0.9,CCOc1ccccc1NC(=O)COc1ccc2ccc(=O)oc2c1
15,11.8,Cc1ccc(/C=C/C(=O)OCC(=O)Nc2cccnc2Cl)o1
16,> 47,Cc1[nH]c2ccc(C(=O)NCCN3CCCCCC3)cc2c1C
17,> 42.6,COCc1cc(=O)[nH]c(-c2ccc(C(F)(F)F)cc2)n1
18,4.3,COc1ccc(S(=O)(=O)N2CCCCC2)cc1NS(=O)(=O)c1ccccc1
19,> 31.2,COCCn1c(=S)[nH]c2ccccc21
20,< 0.6,COc1ccc(OCC(=O)c2c[nH]c3ccccc23)cc1
21,> 44.6,Cc1[nH]cnc1C(=O)N/N=C/c1c(Cl)cccc1Cl
22,> 48.4,CCn1c(SCC(=O)NC2CC2)nnc1-c1csc(C)c1
23,41.2,CCOc1cc(C)c(S(=O)(=O)NCCCn2ccnc2)cc1C
24,32.1,COC(=O)c1ccccc1Nc1ccnc(Cl)n1

row,solubility kinetic [µg/mL],SMILES
1,1.7,Cc1ccc(OCC(=O)Nc2ccc3oc(=O)ccc3c2)cc1
2,36.8,COc1ccc(C(=O)O)cc1NCc1cccnc1
3,29.1,CCNC(=O)COc1ccc(OCc2ccccc2)cc1
4,20.9,CCNc1nc(-c2ccc(OC(F)F)cc2)c(C)s1
5,> 62.2,CC[N+](C)(C)Cc1ccccc1Br.Cc1ccc(S(=O)(=O)[O-])cc1
6,> 51.2,CCCCC(=O)NNC(=O)N1c2ccccc2Sc2ccccc21
7,35.5,Nc1ccc(Oc2ccc3c(c2)C(=O)NC3=O)cc1
8,> 51.8,COc1ccccc1NC(=O)COC(=O)C1C2CC3OC(=O)C1C3C2 (stereo not given)
9,> 54.4,CCn1c(SCC(=O)NC2CCCCC2)nnc1-c1ccccc1F
10,3.4,Cc1[nH]c(=O)nc(SCc2ccc(Cl)c(Cl)c2)c1C#N
11,12,O=C(Cc1ccc(-c2ccccc2)cc1)Nc1ccccn1
12,3.7,O=C(CC(SCCO)c1ccc([N+](=O)[O-])cc1)c1ccco1 (stereo not given)
13,> 42.2,Cc1ccc(S(=O)(=O)NC(=O)C2CCCCC2)cc1
14,> 35.9,Cc1ccsc1C(=O)OCC(=O)NC1CC1
15,> 42.6,Cc1ccsc1CNCC(O)c1ccccc1.Cl (stereo not given)
16,> 47.8,CCN1CCN(c2nnc(-c3ccccc3)c3ccccc23)CC1
17,32.9,NC(=O)c1ccc(NC(=O)Cc2cccs2)cc1
18,> 43.6,N#Cc1ccccc1-c1ccccc1C(=O)N1CCCCC1
19,> 45.2,C#CCn1c(C)cc(C)c(S(=O)(=O)c2ccccc2)c1=O
20,1.2,CCN(c1ccccc1)S(=O)(=O)c1ccc(N2CCN(c3ccc(OC)cc3)CC2)nc1
21,> 32.4,Nc1ccccc1C(=O)NCc1ccco1
22,17.1,CCOc1ccc(NC(=S)NCc2ccc3c(c2)OCO3)cc1
23,> 55.3,O=C(O)c1ccc(-n2c(/C=C/c3ccccc3)nc3ccccc3c2=O)cc1
24,4.4,O=S(=O)(Nc1ccccc1N1CCCCC1)c1ccccc1

row,solubility kinetic [µg/mL],SMILES
1,> 20.9,Cc1cc(O)cc(=O)n1C
2,> 56.6,Fc1ccc(-n2cc(-c3ccccc3)[n+]3c2SCC3)cc1.[Br-]
3,> 36.6,N#Cc1ccc(OCC(=O)N2CCCC2=O)cc1
4,> 39.1,CCNCc1cc([N+](=O)[O-])ccc1OCC.Cl
5,48,CN(C)c1cc2c(cc1NS(=O)(=O)c1ccccc1)n(C)c(=O)n2C
6,1.5,CCCCOc1nc(N2CCOCC2)nc(C)c1[N+](=O)[O-]
7,> 49.4,CCCC(C)NC(=O)CN1C(=O)NC2(CCc3ccccc32)C1=O (stereo not given)
8,33.2,Cc1cccc(OCC(O)Cn2ccnc2C)c1 (stereo not given)
9,0.6,CCn1c(=O)c([N+](=O)[O-])c(NCc2ccco2)c2ccccc21
10,0.5,CCCCN(CC)C(=O)c1cc2c(=O)[nH]c3ccc(C)cc3c2s1
11,> 49.8,N#Cc1cc([N+](=O)[O-])ccc1NC(=O)COC(=O)C1CCC(=O)N1 (stereo not given)
12,> 31.5,CCOC(=O)/C(C#N)=C/N1CCOCC1
13,33.3,Cc1cc(C)c(NS(=O)(=O)c2c(C)noc2C)c(C)c1
14,> 49.1,CC12CCC(C(=O)O)(c3nc4cc([N+](=O)[O-])ccc4nc31)C2(C)C (stereo not given)
15,> 36.2,CCc1c(C#N)c(=O)[nH]c(=O)n1-c1ccccc1
16,> 37.8,COC(=O)c1cccc(NC(=S)NC(C)C)c1
17,> 48.1,Cc1ccc(C(=O)NCC(=O)N(C)Cc2cccc(F)c2)s1
18,7.2,CC(=O)c1ccc(NC(=O)CN2c3cccc4cccc(c34)S2(=O)=O)cc1
19,> 42.2,CCOC(=O)Nc1cc(NC(=O)OCC)c(C)nc1C
20,6.1,Cc1ccc(NC(=O)Cc2cccs2)cc1Cl
21,> 47,CC(OC(=O)c1cccc(O)c1)C(=O)N(C)Cc1ccccc1 (stereo not given)
22,47.7,O=c1[nH]cccc1-c1nc2ccccc2n1Cc1ccc(F)cc1

row,SMILES,solubility kinetic [µg/mL]
1,COc1ccc(NC2=NC(C)(C)CS2)cc1,31.4
2,O=c1c2ccccc2nc(-c2ccccc2Cl)n1-c1cccc(O)c1,> 52.3
